According to patent publication US20020052295A1, “Diacyl derivatives of propylene diamine having herbicidal activity” (priority 1999, published 2002):

Key:
[1] = tested on: CONAR; assay: Post-emergence herbicidal activity on CONAR (field bindweed); format: in vivo, Convolvulus arvensis; conditions: post-emergence spray; lowest tested rate with 80% or greater inhibition; about 14 days after treatment
Description: (§1) All such uses, and the biological activity enabling such uses, are embraced by the term “herbicidal” herein. Tables 15 and 16 summarize results of tests conducted as described below to determine the pre-emergence herbicidal activity, in the form of a GR80 value, of illustrative compounds of this invention. […] Where herbicidal activity was evident but 80% inhibition was not achieved at the highest rate tested (typically 1000 g/ha), an asterisk (*) is shown in the following tables. Herbicidal activity evident in the form of symptoms of phytotoxicity, in the absence of at least 80% inhibition at any rate, is indicated in the tables by “phyto”. A blank cell in the following tables indicates no herbicidal or phytotoxic response at any rate tested.
(§2) In another set of tests, the post-emergence activity of compounds of this invention was evaluated on the cool season species listed above. The following procedure was used.
(§3) A pre-prepared topsoil mixture (described above) was placed in a pot and compacted to a depth of 1.0 to 1.25 cm from the top of the pot. Seeds of each of several monocotyledonous and dicotyledonous annual plant species were placed on top of the soil The seeds were covered with a mixture of 50% topsoil and 50% Rediearth™ in sufficient quantity to level-fill the pots. The pots were then placed on a greenhouse bench and subirrigated as needed until plants growing from the seeds had emerged and reached a suitable growth stage for post-emergence treatment, typically 9 to 14 days after planting.
(§4) A known amount of each test compound dissolved or suspended in an appropriate organic solvent was diluted with a 50:50 mix of acetone and water and applied to the plants by spraying with a standard spray nozzle in a spray volume of 3,100 l/ha at a spray pressure of […] (30 psig). Control plants were not sprayed.
(§5) After treatment the plants were placed in a greenhouse with a 30/21° C. day/night temperature regime and were subsequently watered as needed for growth. Approximately 14 days after treatment, the plants were observed and herbicidal efficacy recorded as percent inhibition by comparison with control plants.

[2] = tested on: BRAPP; assay: Pre-emergence herbicidal activity on BRAPP (broadleaf signalgrass); format: in vivo, Brachiaria platyphylla; conditions: lowest tested rate giving 80% or greater inhibition, approx. 14 days after planting and treating, greenhouse
Outline: (§6)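 GR80 from percent growth inhibition versus untreated controls, rated about 14 days after planting and pre-emergence soil-surface application. Compound applied in 50:50 acetone:water over freshly covered seeds; pots kept in greenhouse at 30/21 °C day/night.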

[3] = tested on: SORVU; assay: Post-emergence herbicidal activity on SORVU (shattercane); format: in vivo, Sorghum vulgare; conditions: post-emergence spray; lowest tested rate with 80% or greater inhibition; about 14 days after treatment
Description: as §1, §2, §3, §4, §5

[4] = tested on: PANDI; assay: Post-emergence herbicidal activity on PANDI (fall panicum); format: in vivo, Panicum dichotomiflorum; conditions: post-emergence spray; lowest tested rate with 80% or greater inhibition; about 14 days after treatment
Description: as §1, §2, §3, §4, §5

[5] = tested on: CHEAL; assay: Post-emergence herbicidal activity on CHEAL (common lambsquarters); format: in vivo, Chenopodium album; conditions: post-emergence spray; lowest tested rate with 80% or greater inhibition; about 14 days after treatment
Description: as §1, §2, §3, §4, §5

[6] = tested on: DATST; assay: Post-emergence herbicidal activity on DATST (jimsonweed); format: in vivo, Datura stramonium; conditions: post-emergence spray; lowest tested rate with 80% or greater inhibition; about 14 days after treatment
Description: as §1, §2, §3, §4, §5

[7] = tested on: DIGSA; assay: Post-emergence herbicidal activity on DIGSA (large crabgrass); format: in vivo, Digitaria sanguinalis; conditions: post-emergence spray; lowest tested rate with 80% or greater inhibition; about 14 days after treatment
[8] = tested on: POROL; assay: Post-emergence herbicidal activity on POROL (common purslane; table head prints PORAL); format: in vivo, Portulaca oleracea; conditions: post-emergence spray; lowest tested rate with 80% or greater inhibition; about 14 days after treatment
Description: as §1, §2, §3, §4, §5

[9] = tested on: DIGSA; assay: Pre-emergence herbicidal activity on DIGSA (large crabgrass); format: in vivo, Digitaria sanguinalis; conditions: lowest tested rate giving 80% or greater inhibition, approx. 14 days after planting and treating, greenhouse
Outline: as §6

[10] = tested on: CIRAR; assay: Pre-emergence herbicidal activity on CIRAR (canada thistle, seedling); format: in vivo, Cirsium arvense; conditions: lowest tested rate giving 80% or greater inhibition, approx. 14 days after planting and treating, greenhouse
Outline: as §6

[11] = tested on: SOLNI; assay: Post-emergence herbicidal activity on SOLNI (black nightshade); format: in vivo, Solanum nigrum; conditions: post-emergence spray; lowest tested rate with 80% or greater inhibition; about 14 days after treatment
Description: as §1, §2, §3, §4, §5

[12] = tested on: ECHCG; assay: Post-emergence herbicidal activity on ECHCG (barnyardgrass); format: in vivo, Echinochloa crus-galli; conditions: post-emergence spray; lowest tested rate with 80% or greater inhibition; about 14 days after treatment
Description: as §1, §2, §3, §4, §5

[13] = tested on: SOLNI; assay: Pre-emergence herbicidal activity on SOLNI (black nightshade); format: in vivo, Solanum nigrum; conditions: lowest tested rate giving 80% or greater inhibition, approx. 14 days after planting and treating, greenhouse
Outline: as §6

[14] = tested on: PANMI; assay: Post-emergence herbicidal activity on PANMI (wild proso millet); format: in vivo, Panicum miliaceum; conditions: post-emergence spray; lowest tested rate with 80% or greater inhibition; about 14 days after treatment
[15] = tested on: ECHCG; assay: Pre-emergence herbicidal activity on ECHCG (barnyardgrass); format: in vivo, Echinochloa crus-galli; conditions: lowest tested rate giving 80% or greater inhibition, approx. 14 days after planting and treating, greenhouse
Outline: as §6

[16] = tested on: ABUTH; assay: Post-emergence herbicidal activity on ABUTH (velvetleaf); format: in vivo, Abutilon theophrasti; conditions: post-emergence spray; lowest tested rate with 80% or greater inhibition; about 14 days after treatment
Description: as §1, §2, §3, §4, §5

[17] = tested on: SORHA; assay: Post-emergence herbicidal activity on SORHA (johnsongrass, seedling); format: in vivo, Sorghum halepense; conditions: post-emergence spray; lowest tested rate with 80% or greater inhibition; about 14 days after treatment
Description: as §1, §2, §3, §4, §5

[18] = tested on: SETFA; assay: Pre-emergence herbicidal activity on SETFA (giant foxtail); format: in vivo, Setaria faberi; conditions: lowest tested rate giving 80% or greater inhibition, approx. 14 days after planting and treating, greenhouse
Outline: as §6

[19] = tested on: AMARE; assay: Post-emergence herbicidal activity on AMARE (redroot pigweed); format: in vivo, Amaranthus retroflexus; conditions: post-emergence spray; lowest tested rate with 80% or greater inhibition; about 14 days after treatment
Description: as §1, §2, §3, §4, §5

[20] = tested on: PANMI; assay: Pre-emergence herbicidal activity on PANMI (wild proso millet); format: in vivo, Panicum miliaceum; conditions: lowest tested rate giving 80% or greater inhibition, approx. 14 days after planting and treating, greenhouse
Outline: as §6

[21] = tested on: SETFA; assay: Post-emergence herbicidal activity on SETFA (giant foxtail); format: in vivo, Setaria faberi; conditions: post-emergence spray; lowest tested rate with 80% or greater inhibition; about 14 days after treatment
Description: as §1, §2, §3, §4, §5

[22] = tested on: BRAPP; assay: Post-emergence herbicidal activity on BRAPP (broadleaf signalgrass); format: in vivo, Brachiaria platyphylla; conditions: post-emergence spray; lowest tested rate with 80% or greater inhibition; about 14 days after treatment
Description: as §1, §2, §3, §4, §5

[23] = tested on: AMARE; assay: Pre-emergence herbicidal activity on AMARE (redroot pigweed); format: in vivo, Amaranthus retroflexus; conditions: lowest tested rate giving 80% or greater inhibition, approx. 14 days after planting and treating, greenhouse
Outline: as §6

[24] = tested on: ABUTH; assay: Pre-emergence herbicidal activity on ABUTH (velvetleaf); format: in vivo, Abutilon theophrasti; conditions: lowest tested rate giving 80% or greater inhibition, approx. 14 days after planting and treating, greenhouse
Outline: as §6

[25] = tested on: CHEAL; assay: Pre-emergence herbicidal activity on CHEAL (common lambsquarters); format: in vivo, Chenopodium album; conditions: lowest tested rate giving 80% or greater inhibition, approx. 14 days after planting and treating, greenhouse
Outline: as §6

[26] = tested on: POROL; assay: Pre-emergence herbicidal activity on POROL (common purslane); format: in vivo, Portulaca oleracea; conditions: lowest tested rate giving 80% or greater inhibition, approx. 14 days after planting and treating, greenhouse
Outline: as §6

[27] = tested on: SORHA; assay: Pre-emergence herbicidal activity on SORHA (johnsongrass, seedling); format: in vivo, Sorghum halepense; conditions: lowest tested rate giving 80% or greater inhibition, approx. 14 days after planting and treating, greenhouse
Outline: as §6

[28] = tested on: PANDI; assay: Pre-emergence herbicidal activity on PANDI (fall panicum); format: in vivo, Panicum dichotomiflorum; conditions: lowest tested rate giving 80% or greater inhibition, approx. 14 days after planting and treating, greenhouse
Outline: as §6

[29] = tested on: CONAR; assay: Pre-emergence herbicidal activity on CONAR (field bindweed); format: in vivo, Convolvulus arvensis; conditions: lowest tested rate giving 80% or greater inhibition, approx. 14 days after planting and treating, greenhouse
Outline: as §6

[30] = tested on: SORVU; assay: Pre-emergence herbicidal activity on SORVU (shattercane); format: in vivo, Sorghum vulgare; conditions: lowest tested rate giving 80% or greater inhibition, approx. 14 days after planting and treating, greenhouse
Description: as §1
The pre-emergence tests were conducted by the following procedure. Topsoil was sieved to pass through a 1.27 cm screen. Fertilizer was added to the topsoil and the mixture was then sterilized by heating. The topsoil mixture was placed in a pot and compacted to a depth of 1.0 to 1.25 cm from the top of the pot. Seeds of each of several monocotyledonous and dicotyledonous annual plant species were placed on top of the soil. Additional soil was subsequently placed over the seeds to level-fill the pot. A known amount of each test compound dissolved or suspended in an appropriate organic solvent was diluted with a 50:50 mix of acetone and water and applied to the surface of the soil. After treatment the plants were placed in a greenhouse with a 30/21° C. day/night temperature regime where they received 0.64 cm of overhead irrigation. All subsequent watering consisted of a light overhead mist and/or subirrigation as needed for germination and growth.
Approximately 14 days after planting and treating, the plants were observed and herbicidal efficacy recorded as percent inhibition by comparison with untreated plants.
The plant species usually regarded as weeds which were utilized in the tests are identified in the tables below according to the following legend, in which “d” indicates a dicotyledonous species and “m” a monocotyledonous species. All monocotyledonous species included in the tests herein are grasses.

[31] = tested on: DATST; assay: Pre-emergence herbicidal activity on DATST (jimsonweed); format: in vivo, Datura stramonium; conditions: lowest tested rate giving 80% or greater inhibition, approx. 14 days after planting and treating, greenhouse
Outline: as §6

Compound	Post-emergence activity (GR80) CONAR [1]	Pre-emergence activity (GR80) on BRAPP [2]	Post-emergence activity (GR80) SORVU [3]	Post-emergence activity (GR80) PANDI [4]	Post-emergence activity (GR80) CHEAL [5]	Post-emergence activity (GR80) DATST [6]	Post-emergence activity (GR80) DIGSA [7]	Post-emergence activity (GR80) PORAL [8]	Pre-emergence activity (GR80) on DIGSA [9] [g/ha]	Pre-emergence activity (GR80) on CIRAR [10] [g/ha]	Post-emergence activity (GR80) SOLNI [11]	Post-emergence activity (GR80) ECHCG [12]	Pre-emergence activity (GR80) on SOLNI [13]	Post-emergence activity (GR80) PANMI [14]	Pre-emergence activity (GR80) on ECHCG [15]	Post-emergence activity (GR80) ABUTH [16]	Post-emergence activity (GR80) SORHA [17]	Pre-emergence activity (GR80) on SETFA [18]	Post-emergence activity (GR80) AMARE [19]	Pre-emergence activity (GR80) on PANMI [20]	further results
C=C(C)CSc1ccccc1C(=O)NC(C)CNC(=O)c1cccc(C(F)(F)F)c1 (centres unmarked) [Example 124]	phyto	phyto	[empty]	[empty]	[empty]	phyto	[empty]	phyto	1000	1000	phyto	[empty]	phyto	[empty]	phyto	phyto	[empty]	phyto	phyto	phyto	Post-emergence activity (GR80) SETFA [21]: [empty]; Post-emergence activity (GR80) BRAPP [22]: [empty]
CCSc1ncccc1C(=O)NC(C)CNC(=O)c1cccc(C(F)(F)F)c1 (centres unmarked) [Example 243, 2-ethylthio-N-[1-methyl-2-(3-trifluoromethyl)phenylcarbonylamino]ethyl-3-pyridinecarboxamide]	* (Where herbicidal activity was evident but 80% inhibition was not achieved at the highest rate tested (typically 1000 g/ha), an asterisk (*) is shown)	500 g/ha	[empty]	[empty]	phyto	750 g/ha	[empty]	* (Where herbicidal activity was evident but 80% inhibition was not achieved at the highest rate tested (typically 1000 g/ha), an asterisk (*) is shown)	500	250	phyto	[empty]	250 g/ha	[empty]	1000 g/ha	phyto	[empty]	500 g/ha	phyto	750 g/ha	Pre-emergence activity (GR80) on AMARE [23]: 750 g/ha; Pre-emergence activity (GR80) on ABUTH [24]: 500 g/ha; Pre-emergence activity (GR80) on CHEAL [25]: 250 g/ha; Pre-emergence activity (GR80) on PORAL [26]: 250 g/ha; Pre-emergence activity (GR80) on SORHA [27]: * (Where herbicidal activity was evident but 80% inhibition was not achieved at the highest rate tested (typically 1000 g/ha), an asterisk (*) is shown); Pre-emergence activity (GR80) on PANDI [28]: 500 g/ha; Pre-emergence activity (GR80) on CONAR [29]: 250 g/ha; Pre-emergence activity (GR80) on SORVU [30]: phyto; Post-emergence activity (GR80) SETFA [21]: [empty]; Pre-emergence activity (GR80) on DATST [31]: 250 g/ha; Post-emergence activity (GR80) BRAPP [22]: [empty]
